The results in this text go back to patent US20090246134A1, “COMPOSITIONS AND METHODS FOR MODULATING GATED ION CHANNELS” (PainCeptor Pharma Corporation, priority 2007, published 2009).

The test system of assay [1] is formalin-induced pain in Sprague-Dawley rats. Briefly: Formalin model of acute tonic pain. The format is in vivo, rat. Conditions: rat, in vivo. The method, then: Male Sprague-Dawley rats are housed together in groups of three animals under standard conditions with unrestricted access to food and water. All experiments are conducted according to the ethical guidelines for investigations of experimental pain in conscious animals (Zimmerman, 1983)
Assessment of formalin-induced flinching behavior in normal, uninjured rats (body weight 150-180 g) was made with the use of an Automated Nociception Analyser (University of California, San Diego, USA). Briefly, this involved placing a small C-shaped metal band (10 mm wide×27 mm long) on the hindpaw of the rat to be tested. The rats (four rats were included in each testing session) were then placed in a cylindrical plexiglass observation chamber (diameter 30.5 cm and height 15 cm) for 20 min for adaptation purposes prior to being administered drug or vehicle according to the experimental paradigm being followed. After adaptation, individual rats were then gently restrained and formalin (5% in saline, 50 μl, s.c.) was injected into the plantar surface of the hindpaw using a 27 G needle. Rats were then returned to their separate observation chambers, each of which were in turn situated upon an enclosed detection device consisting of two electromagnetic coils designed to produce an electromagnetic field in which movement of the metal band could be detected. The analogue signal was then digitised and a software algorithm (LabView) applied to enable discrimination of flinching behaviour from other paw movements. A sampling interval of 1 min was used and on the basis of the resulting response patterns 5 phases of nociceptive behaviour were identified and scored: first phase (P1; 0-5 min), interphase (Int; 6-15 min), second phase (P2; […]), phase 2A (P2A; 16-40 min) and phase 2B (P2B; 41-60 min).
Nociceptive behavior was also determined manually every 5 min by measuring the amount of time spent in each of four behavioral categories: 0, treatment of the injected hindpaw is indistinguishable from that of the contralateral paw; 1, the injected paw has little or no weight placed on it; 2, the injected paw is elevated and is not in contact with any surface; 3, the injected paw is licked, bitten, or shaken. A weighted nociceptive score, ranging from 0 to 3 was calculated by multiplying the time spent in each category by the category weight, summing these products, and dividing by the total time for each 5 min block of time. (Coderre et al., Pain 1993; 54: 43). On the basis of the resulting response patterns, 2 phases of nociceptive behavior were identified and scored: first phase (P1; 0-5 min), interphase (Int; 6-15 min), second phase (P2; […]), phase 2A (P2A; 16-40 min) and phase 2B (P2B; 41-60 min).
Statistical analysis was performed using Prism™ 4.01 software package (GraphPad, San Diego, Calif., USA). The difference in response levels between treatment groups and control vehicle group was analyzed using an ANOVA followed by Bonferroni's method for post-hoc pair-wise comparisons. A p value<0.05 was considered to be significant
The effect of Compound A on pain induced by intraplantar formalin injection was investigated. Compound A was administered i.p. 30 min. before the formalin. Compound A was able to reduce the total pain score behavior (flinching, licking, biting) in phase 1 and 2 of the formalin test.

Assay [2] deals with CFA-induced change in weight bearing in Sprague-Dawley rats. Briefly: CFA model of chronic inflammatory pain, hindpaw weight bearing. The class given is in vivo, rat. Conditions: 24 h after CFA; 60 min after drug; Compound A 5, 10, 20 mg/kg i.p.; Compound H 10, 30, 60 mg/kg; morphine 3, 6, 10 mg/kg; n=7-8. The method, then: Rats (body weight 260-300 g) were given a s.c. injection of CFA (50% in saline, 100 μl, Sigma) into the plantar surface of the hindpaw under brief halothane anaesthesia. After 24 h, they were then tested for hindpaw weight bearing responses, as assessed using an Incapacitance Tester (Linton Instrumentation, UK), (Zhu et al., 2005). The instrument incorporates a dual channel scale that separately measures the weight of the animal distributed to each hindpaw. While normal rats distribute their body weight equally between the two hindpaws (50-50), the discrepancy of weight distribution between an injured and non-injured paw is a natural reflection of the discomfort level in the injured paw (nocifensive behavior). The rats were placed in the plastic chamber designed so that each hindpaw rested on a separate transducer pad. […] For each rat, three readings from each paw were taken and then averaged. Side-to-side weight bearing difference was calculated as the average of the absolute value of the difference between two hindpaws from three trials (right paw reading-left paw reading).
Hindpaw weight bearing responses were measured in male Sprague-Dawley rats for 2-3 days prior to being given a hindpaw injection of CFA. Twenty-four hours later baseline responses were measured and rats were then administered Compound A (5, 10 and 20 mg/kg, i.p.), Compound H (10, 30 and 60 mg/kg) and morphine (3, 6 and 10 mg/kg). Weight bearing responses were then measured at 30, 60 and 120 min after drug or vehicle injection (data shown at 60 min.). […] All groups n=7-8.

In assay [3] the test system is native sensory-neuron gated ion channels. Briefly: Patch-clamp electrophysiology of sensory neurons in primary culture. The class given is cell-based, rat. Conditions: n=3. From the text: This example describes another in vitro assessment of the inhibitory activity of the compounds of the present invention utilizing patch-clamp electrophysiology of sensory neurons in primary culture.
Sensory neurons can be isolated and cultured in vitro from different animal species. The most widely used protocols use sensory neurons isolated from neonatal (Eckert, et al. (1997) J Neurosci Methods 77:183-190) and embryonic (Vasko, et al. (1994) J Neurosci 14:4987-4997) rat. […] Electrophysiology is performed similarly as described above in Example 2. In the voltage-clamp mode, trans-membrane currents are recorded. Compounds A and H at 1 μM inhibit the pH 6.5-induced inward current. In the current-clamp mode, change in the trans-membrane potential are recorded. Under acidic conditions (e.g., pH 6.5) the membrane depolarizes, leading to the firing of action potentials. Compounds A and H at 1 μM inhibit the acid-induced membrane depolarization and reduce the ensuing rate of action potential firing.

As to `CCN1CCc2c(-c3ccccc3)cc3c(c2C1)NC(=O)/C3=N/O` [Compound H, 5-phenyl-6,7,8,9-tetrahydro-3-(hydroxyimino)-8-ethyl-1H-pyrrolo[3,2-h]isoquinoline-2(3H)-one], the “acute tonic pain induced by formalin injection in the paw” value in assay [1] is “block”. Also, the “CFA-induced change in weight bearing compared with vehicle” value in assay [2] is reported as “marked dose-dependent attenuation”. For the same molecule, the acid-induced membrane depolarization entry in assay [3] (current-clamp mode, 1 μM) is “inhibit”. The “rate of action potential firing” value in assay [3] (current-clamp mode, acidic conditions, 1 μM) was “reduce”. Moreover, in assay [3], the “activity of native sensory-neuron gated ion channels” value is reported as “effectively modulate”. In addition, the “pH 6.5-induced inward current” value in assay [3] (voltage-clamp mode, 1 μM) is given as “inhibit”.
